Emax and IC50 data for eleven compounds are collected here from patent publication US10344054B2, “Angiotensin-1-receptor antagonists” (Ferring B.V., priority 2016, dated 2019).

Each structure is given as a SMILES string. Starred links: 1 amine or outer side, 2 acyl side, 3 side chain; linkers in the order of their positions; H or OH if unused. Non-standard residues stand in square brackets, D forms with d. Residues, ends and D or L forms follow the SMILES beside them. X1 = O=C(CN(C[C@H](O)[C@@H](O)[C@H](O)[C@H](O)CO)[*:1])[*:2]; dPhe(2-Cl) = N[C@H](Cc1ccccc1Cl)C(=O)O; Chg = N[C@H](C(=O)O)C1CCCCC1

The target of assay [1] is T1, hAT1R (Homo sapiens, UniProt P30556).
T1 sequence (P30556 1-359): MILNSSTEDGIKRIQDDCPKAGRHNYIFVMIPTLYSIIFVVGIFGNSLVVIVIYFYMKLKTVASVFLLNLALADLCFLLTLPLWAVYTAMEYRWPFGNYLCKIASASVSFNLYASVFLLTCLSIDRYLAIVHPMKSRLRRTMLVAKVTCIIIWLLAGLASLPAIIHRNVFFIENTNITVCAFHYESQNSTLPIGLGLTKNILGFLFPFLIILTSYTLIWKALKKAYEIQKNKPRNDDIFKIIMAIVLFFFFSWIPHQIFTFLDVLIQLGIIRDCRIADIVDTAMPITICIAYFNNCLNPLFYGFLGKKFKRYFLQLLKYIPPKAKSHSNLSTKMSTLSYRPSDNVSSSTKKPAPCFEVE
As to the kind of experiment: FLIPR calcium flux assay, Part II: antagonist activity against Angiotensin II. As to hAT1R Antagonist Efficacy Antag (%) Ave: Angiotensin II 10 nM final concentration. The settings on record: for Emax: read-out: hAT1R Antagonist Efficacy Antag (%) Ave; for IC50: read-out: hAT1R Antagonist IC50 Ave. The assay is classed as cell-based. As for the experimental part: (§1) AT1 receptor (AT1R) agonists increase intracellular flux of calcium ions. AT1R antagonists can reduce the agonist effect. […] Compounds were first tested for agonism (Part I) followed by addition of the AT1R agonist angiotensin II to test for antagonist activity (Part II). This assay used a stable hAT1R expressing cell line (ChanTest hAT1R; ChanTest Corp A628). Intracellular flux of calcium in response to agonist was measured through real-time measurement of fluorescence induced through the interaction of Ca2+ (released from intracellular stores) and calcium-sensitive dye. In Part I, cells were exposed to varying concentrations of test compounds and immediately measured for agonist activity (EC50 and Efficacy).
(§2) ChanTest hAT1R stable cells were maintained in Ham's F12 containing 10% (v/v) heat inactivated fetal bovine serum (FBS-HI), 4 mM Glutamax, 1% NEAA, 50 ng/mL plasmocin, 400 μg/mL G418 at 37° C. under 5% CO2 in a humidified atmosphere.
(§3) For FLIPR assay, ChanTest hAT1R cells were trypsinized with 6 ml of Trypsin EDTA solution and harvested in phenol-red free DMEM containing 10% FBS-HI, 4 mM Glutamax and counted, spun down and resuspended in the same medium. The cell suspension was added to the wells of 384-well black PDL clear bottom plates at 2.5×10^4 cells/well, 20 μl/well.
(§4) Preparation of Loading Buffer:
(§5) • Loading Buffer: 1 vial of Calcium 5 Bulk Assay reagent was dissolved in 100 ml of 1× HBSS-20 mM Hepes buffer. • Probenecid was resuspended at 1 M in 1 M NaOH. Once the probenecid had gone into solution, an equal volume of H2O was added to make a solution of 500 mM followed by a 1:100 dilution in the Loading Buffer for a working concentration of 5 mM. The pH was adjusted to 7.4 using 1 M NaOH. Loading the Cells with Loading Buffer • Cell plates were removed from the incubator and 25 μl of Loading Buffer containing probenecid (5 mM) added to each well. • Plates were incubated for 1 hour at 37° C. under 5% CO2 in a humidified atmosphere. […] The remaining steps of the assay were carried forward by FLIPR Tetra. A baseline reading was taken at 1-second (s) intervals for 10 s followed by the addition of 5 μl of 10× compounds. The compound-induced fluorescence signal was then measured for 3 minutes with readings taken at 1-s intervals. • The cell plate was removed from the FLIPR and set aside for an additional 17 minutes. • The cell plate was then transferred back to the FLIPR Tetra, along with the 384 well Angiotensin II agonist dilution plate. A baseline reading was taken at 1-second (s) intervals for 10 seconds, followed by the addition of 5.5 μl of 10× Angiotensin II agonist. The agonist-induced fluorescence signal was then measured for 3 minutes with readings taken at 1-s intervals. • Overall, each well in the FLIPR assay was composed of the following components in a total volume of 55.5 μl:
(§6) Time-course results from the FLIPR Calcium 5 assay were expressed as relative fluorescence light units (RFU). The maximum minus minimum values (Max−Min) were used to quantify the strength of the signal. Mean RFU were calculated from replicate values and plotted on the y-axis versus compound concentration on a logarithmic scale on the x-axis, and a single-binding site, four parameter concentration response model: (MIN+((MAX−MIN)/(1+((EC50/x)^Hill)))), was used to perform non-linear regression analysis, generating concentration response curves. Reported parameters included agonist potency EC50 (the concentration causing half-maximal agonist response), antagonist potency IC50 (the concentration causing half-maximal inhibition of the agonist response for antagonist compounds) and efficacy (% MPE: percent of the maximal possible effect).
A general note: Calcium flux is commonly read through the fluorescence of an indicator in the cells.

Assay [2] addresses T1, hAT1R. As to the kind of experiment: FLIPR calcium flux assay, Part I: agonist activity. The assay is classed as cell-based. Particulars: ChanTest hAT1R stable cells; % MPE, percent of the maximal possible effect; read-out: hAT1R Agonist Efficacy Agonist (%) Ave. As to the method: as §1, §2, §3, §4, §5, §6

Turning to `CC[C@H](C)[C@H](NC(=O)[C@H](Cc1ccc(O)cc1)NC(=O)[C@@H](NC(=O)[C@H](CCCNC(=N)N)NC(=O)CNC)C(C)C)C(=O)N[C@@H](Cc1c[nH]cn1)C(=O)N1CCC[C@H]1C(=O)N[C@H](Cc1ccccc1Cl)C(=O)O` [Compound 25, Sar-Arg-Val-Tyr-Ile-His-Pro-(D-Phe(2-Cl))—OH], at hAT1R [1], the Emax stood at 100% and the IC50 (commonly the midpoint of a concentration-inhibition curve) was 11.6 nM. Besides, on hAT1R [2], the Emax was 2%.
Turning to `CNCC(=O)N[C@@H](CCCNC(=N)N)C(=O)N[C@H](C(=O)N[C@@H](Cc1ccc(O)cc1)C(=O)N[C@H](C(=O)N[C@@H](Cc1c[nH]cn1)C(=O)N1CCC[C@H]1C(=O)N[C@H](Cc1ccccc1C(F)(F)F)C(=O)O)C1CCCCC1)C(C)C` [Compound 26, Sar-Arg-Val-Tyr-Chg-His-Pro-(D-Phe(2-CF3))—OH] (HELM PEPTIDE1{[Sar].R.V.Y.[O=C([C@@H](N[*:1])C1CCCCC1)[*:2]].H.P.[O=C(O)[C@@H](Cc1ccccc1C(F)(F)F)N[*:1]]}$$$$V2.0), at hAT1R [1], the Emax was 99% and the IC50 came out at 32.9 nM. On hAT1R [2], the Emax was found to be 12%.
With `CNCC(=O)N[C@@H](CCCNC(=N)N)C(=O)N[C@H](C(=O)N[C@@H](Cc1ccc(O)cc1)C(=O)N[C@H](C(=O)N[C@@H](Cc1c[nH]cn1)C(=O)N1CCC[C@H]1C(=O)N[C@H](Cc1ccccc1C)C(=O)O)C1CCCCC1)C(C)C` [Compound 27, Sar-Arg-Val-Tyr-Chg-His-Pro-(D-Phe(2-Me))—OH] (HELM PEPTIDE1{[Sar].R.V.Y.[O=C([C@@H](N[*:1])C1CCCCC1)[*:2]].H.P.[Cc1ccccc1C[C@@H](N[*:1])C(=O)O]}$$$$V2.0), at hAT1R [1], the Emax is 100% and the IC50 was found to be 14.5 nM. Besides, the Emax on hAT1R [2] was 8%.
On the same counts, the results for `CNCC(=O)N[C@@H](CCCNC(=N)N)C(=O)N[C@H](C(=O)N[C@@H](Cc1ccc(O)c(Cl)c1)C(=O)N[C@H](C(=O)N[C@@H](Cc1c[nH]cn1)C(=O)N1CCC[C@H]1C(=O)N[C@H](Cc1ccccc1Cl)C(=O)O)C(C)C)C(C)C` [Compound 28, Sar-Arg-Val-Tyr(3-Cl)-Val-His-Pro-(D-Phe(2-Cl))—OH] (HELM PEPTIDE1{[Sar].R.V.[O=C([C@H](Cc1ccc(O)c(Cl)c1)N[*:1])[*:2]].V.H.P.[O=C(O)[C@@H](Cc1ccccc1Cl)N[*:1]]}$$$$V2.0) are 99%, 12.2 nM and 5%.
On the same counts, the results for `CC(C)[C@H](NC(=O)[C@H](CCCNC(=N)N)NC(=O)CNC[C@H](O)[C@@H](O)[C@H](O)[C@H](O)CO)C(=O)N[C@@H](Cc1ccc(O)cc1)C(=O)N[C@H](C(=O)N[C@@H](Cc1c[nH]cn1)C(=O)N1CCC[C@H]1C(=O)N[C@H](Cc1ccccc1Cl)C(=O)O)C(C)C` [Compound 29, Glac-Arg-Val-Tyr-Val-His-Pro-(D-Phe(2-Cl))—OH] (HELM PEPTIDE1{[O=C(CNC[C@H](O)[C@@H](O)[C@H](O)[C@H](O)CO)[*:2]].R.V.Y.V.H.P.[O=C(O)[C@@H](Cc1ccccc1Cl)N[*:1]]}$$$$V2.0) are 99%, 19.5 nM and 6%.
On the same counts, the results for `CNCC(=O)N[C@@H](CCCNC(=N)N)C(=O)N[C@H](C(=O)N[C@@H](Cc1cccc(O)c1)C(=O)N[C@H](C(=O)N[C@@H](Cc1c[nH]cn1)C(=O)N1CCC[C@H]1C(=O)N[C@H](Cc1ccccc1Cl)C(=O)O)C(C)C)C(C)C` [Compound 30, Sar-Arg-Val-(m-Tyr)-Val-His-Pro-(D-Phe(2-Cl))—OH] (HELM PEPTIDE1{[Sar].R.V.[O=C([C@H](Cc1cccc(O)c1)N[*:1])[*:2]].V.H.P.[O=C(O)[C@@H](Cc1ccccc1Cl)N[*:1]]}$$$$V2.0) are 100%, 20.5 nM and 12%.
Take `CC(C)[C@H](NC(=O)[C@H](CCCNC(=N)N)NC(=O)CNC[C@H](O)[C@@H](O)[C@H](O)[C@H](O)CO)C(=O)N[C@@H](Cc1ccc(O)cc1)C(=O)N[C@H](C(=O)N[C@@H](Cc1c[nH]cn1)C(=O)N1CCC[C@H]1C(=O)N[C@H](Cc1ccccc1Cl)C(=O)O)C1CCCCC1` [Compound 31, Glac-Arg-Val-Tyr-Chg-His-Pro-(D-Phe(2-Cl))—OH] (H-[X1]RVY[Chg]HP[dPhe(2-Cl)]-OH): at hAT1R [1], the Emax came out at 99% and the IC50 stood at 15.7 nM. In addition, the Emax at hAT1R [2] came out at 6%.
With `CNCC(=O)N[C@@H](CCCNC(=N)N)C(=O)N[C@H](C(=O)N[C@@H](Cc1ccc(O)c(O)c1)C(=O)N[C@H](C(=O)N[C@@H](Cc1c[nH]cn1)C(=O)N1CCC[C@H]1C(=O)N[C@H](Cc1ccccc1Cl)C(=O)O)C(C)C)C(C)C` [Compound 32, Sar-Arg-Val-DOPA-Val-His-Pro-(D-Phe(2-Cl))—OH] (HELM PEPTIDE1{[Sar].R.V.[O=C([C@H](Cc1ccc(O)c(O)c1)N[*:1])[*:2]].V.H.P.[O=C(O)[C@@H](Cc1ccccc1Cl)N[*:1]]}$$$$V2.0), at hAT1R [1], the Emax came out at 99% and the IC50 was 24.1 nM. In addition, at hAT1R [2], the Emax amounted to 5%.
The like results for `CNCC(=O)N[C@@H](CCCNC(=N)N)C(=O)N[C@H](C(=O)N[C@@H](Cc1ccc(N)cc1)C(=O)N[C@H](C(=O)N[C@@H](Cc1c[nH]cn1)C(=O)N1CCC[C@H]1C(=O)N[C@H](Cc1ccccc1Cl)C(=O)O)C(C)C)C(C)C` [Compound 33, Sar-Arg-Val-Aph-Val-His-Pro-(D-Phe(2-Cl))—OH] (HELM PEPTIDE1{[Sar].R.V.[Nc1ccc(C[C@H](N[*:1])C(=O)[*:2])cc1].V.H.P.[O=C(O)[C@@H](Cc1ccccc1Cl)N[*:1]]}$$$$V2.0) were, in that order, 100%, 17.1 nM and 3%.
On the same counts, the results for `CNCC(=O)N[C@@H](CCCNC(=N)N)C(=O)N[C@H](C(=O)N[C@@H](Cc1ccc(O)cc1)C(=O)N[C@H](C(=O)N[C@@H](Cc1c[nH]cn1)C(=O)N1CCC[C@H]1C(=O)N[C@H](Cc1cccc2ccccc12)C(=O)O)C1CCCCC1)C(C)C` [Compound 34, Sar-Arg-Val-Tyr-Chg-His-Pro-(D-1Nal)-OH] (HELM PEPTIDE1{[Sar].R.V.Y.[O=C([C@@H](N[*:1])C1CCCCC1)[*:2]].H.P.[O=C(O)[C@@H](Cc1cccc2ccccc12)N[*:1]]}$$$$V2.0) are 100%, 15.5 nM and 5%.
The like results for `CNCC(=O)N[C@@H](CCCNC(=N)N)C(=O)N[C@H](C(=O)N[C@@H](Cc1ccc(O)cc1)C(=O)N[C@H](C(=O)N[C@@H](Cc1c[nH]cn1)C(=O)N1CCC[C@H]1C(=O)N[C@H](Cc1csc2ccccc12)C(=O)O)C1CCCCC1)C(C)C` [Compound 35, Sar-Arg-Val-Tyr-Chg-His-Pro-(D-(3-benzothienyl)alanine)-OH] (HELM PEPTIDE1{[Sar].R.V.Y.[O=C([C@@H](N[*:1])C1CCCCC1)[*:2]].H.P.[O=C(O)[C@@H](Cc1csc2ccccc12)N[*:1]]}$$$$V2.0) were, in that order, 100%, 14.3 nM and 6%.
